Data on 21 compounds can be found in ChEMBL document CHEMBL2311372, “Design and synthesis of novel benzoheterocyclic derivatives as human acrosin inhibitors by scaffold hopping” (Eur J Med Chem, 2013).

Broadly, the IC50 is the point on the concentration scale where inhibition reaches its midpoint. A lower IC50 goes with inhibition by little substance.

The target in the assay is Acrosin (Homo sapiens, UniProt P10323). The experiment in a line: Inhibition of human acrosin using N-alpha-benzoyl-DL-arginine para-nitroanilide-HCl as substrate after 3 hrs by spectrophotometry.
Sequence of Acrosin (P10323 20-42 limits assumed): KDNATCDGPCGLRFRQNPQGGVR
Sequence of Acrosin (P10323 43-343 limits assumed): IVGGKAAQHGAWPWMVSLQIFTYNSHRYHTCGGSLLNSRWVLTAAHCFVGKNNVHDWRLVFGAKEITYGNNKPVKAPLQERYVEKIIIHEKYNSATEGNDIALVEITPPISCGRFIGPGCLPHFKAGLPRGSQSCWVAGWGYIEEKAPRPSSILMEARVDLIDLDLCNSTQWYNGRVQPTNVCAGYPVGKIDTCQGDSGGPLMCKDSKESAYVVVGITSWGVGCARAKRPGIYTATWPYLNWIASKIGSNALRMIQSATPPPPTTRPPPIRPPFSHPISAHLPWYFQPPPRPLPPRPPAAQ
`O=Cc1cc(-c2ccc(Cl)cc2Cl)on1` returned an IC50 of 39 mM. That is a millimolar value.
The same measure for `O=C(NCCO)Nc1nc2ccc(S(=O)(=O)NCc3ccccc3F)cc2[nH]1`: 0.08 mM; for `COc1cccc(CNS(=O)(=O)c2ccc3nc(NC(=O)NCCO)[nH]c3c2)c1`: 7.32 mM; for `O=C(NCCO)Nc1nc2ccc(S(=O)(=O)NCc3cc(Cl)cc(Cl)c3)cc2[nH]1`: 2.45 mM.
As to `O=C(NCCO)Nc1nc2ccc(S(=O)(=O)NCc3cc(F)cc(F)c3)cc2[nH]1`, the IC50 was 0.34 mM.
`COc1ccccc1CNS(=O)(=O)c1ccc2nc(NC(=O)NCCO)[nH]c2c1` registered an IC50 of 6.04 mM.
The figure for `Cc1cccc(CNS(=O)(=O)c2ccc3nc(NC(=O)NCCO)[nH]c3c2)c1` is 5.45 mM; for `O=C(NCCO)Nc1nc2ccc(S(=O)(=O)NCc3ccccc3)cc2[nH]1` it is 0.28 mM.
The same measure for `O=C(NCCO)Nc1nc2ccc(S(=O)(=O)NCc3ccccc3Cl)cc2[nH]1`: 1.06 mM; for `CCCCCCNS(=O)(=O)c1ccc2nc(NC(=O)NCCO)[nH]c2c1`: 1.62 mM; for `CCCCN(CCCC)CC(=O)Nc1nc2ccc(Br)cc2s1`: 2.78 mM.
The figure for `CC(C)CCN(CCC(C)C)CC(=O)Nc1nc2ccc(Br)cc2s1` is 1.09 mM; for `CCCCCN(CCCCC)CC(=O)Nc1nc2ccc(Br)cc2s1` it is 0.54 mM; for `CCCCCN1CCN(CC(=O)Nc2nc3ccc(Br)cc3s2)CC1` it is 5.08 mM.
Turning to `COc1ccc(-c2cc(C(=O)N(C)CCO)n[nH]2)cc1`, half-maximal inhibition (IC50) was put at 6.81 mM.
In the case of `COc1ccc(-c2cc(C(=O)N(CCO)CCO)n[nH]2)cc1`, the IC50 was found to be 5.73 mM.
The same measure for `COc1ccc(-c2cc(C(=O)NCCCO)[nH]n2)cc1`: 1.43 mM.
The figure for `COc1ccc(-c2cc(C(=O)NCC(C)O)n[nH]2)cc1` (stereo unspecified) is 8.92 mM.
In turn, `CCOC(=O)c1nn(C(=O)c2ccc(Cl)cc2Cl)c2ccccc12` showed an IC50 of 3.24 mM.
`CNC(=O)c1nn(C(=O)c2ccc(Cl)cc2Cl)c2ccccc12` showed an IC50 of 3.78 mM.
The same measure for `Cc1ccc(S(=O)(=O)NC(CCCCN)C(=O)CCl)cc1` (stereo unspecified): 143 mM.
